Values joined by “and” are separate entries in the source; they are usually repeats but may differ in a detail not shown here. Equal values may be shown once.
Tests used:
A2780 cells = assay: MTT viability assay, parental A2780 cells, with or without PTX; assay type: cell-based, human; conditions: for Increase of PTX toxicity against parental A2780 cells: 15 µM compound with or without 500 nM PTX, 48 h, MTT; for Mean % Survival / % Survival (individual sample): A2780 cells; for Mean % Survival / viability at 15 µM: mean of 8 or 12 samples; for % Survival (individual sample): single samples; for viability at 15 µM: Homo sapiens, A2780, A2780 cells, read-out: Mean % Survival
Procedure: The chemotherapeutic sensitive DU145 human prostate cancer cells and the multidrug resistant sub-line, DU145-TXR, were generous gifts from Dr. Evan Keller (University of Michigan, Ann Arbor, MI). The MDR, P-gp overexpressing DU145-TXR cells were maintained under positive selection pressure by supplementing complete medium with 10 nM paclitaxel (Acros Organics, NJ). In addition to the aforementioned cell lines, the chemotherapeutic sensitive A2780 ovarian cancer cells (93112519, Sigma) and the multidrug resistant A2780-ADR (93112520, Sigma) were maintained in complete RPMI media consisting of RPMI-1640 with L-glutamine, 10% fetal bovine serum (FBS; Corning), 100 U/mL penicillin and 100 μg/mL streptomycin in a humidified incubator at 37 °C and 5% CO2. The MDR, P-gp overexpressing A2780-ADR cell line was maintained under positive selection pressure by supplementing complete medium with 100 nM doxorubicin (Fisher Scientific, NJ). The non-cancerous HFL1 (human lung fibroblast) cell line cell line was a generous gift from Dr. Robert Harrod (Southern Methodist University, Dallas, TX) and was maintained in complete F12K media consisting of F12K with 10% fetal bovine serum, 100 U/mL penicillin, and 100 µg/mL streptomycin (Gibco). Flasks and 96 well plates that were used with the non-cancerous line HFL1 were pre-treated with 0.1 mg/ml Collagen Type 1 (Gibco) and rinsed with PBS (Fisher).
Culture of the DU145, DU145-TXR, and HFL1 cell lines was performed as described in [8]. Culture of the A2780 and A2780-ADR cell lines was performed as described in [9]. MTT assays were performed as described in [8] with minor modifications. LC-MS/MS accumulation assays were performed as described in {Nanayakkara, 2018 #173} [9] with some modifications. […] The inhibitor concentration was lowered to 15 µM here, as the goal of the study was to identify compounds that were effective in reversing MDR at low concentrations, and to determine if the expanded virtual-assisted methods improved on our first-draft attempt. Compounds 56–98 were pre-screened using Resazurin cell viability assays: cells were incubated with 15 µM compound with or without 500 nM PTX for 48 hours, after which cell survival was assessed similar to [39]. Data represent the mean of two separate experiments, with n = 3 samples per experiment (n = 6 total) (S4 Table). The top performing compounds from this initial screen were re-tested with MTT viability assays against DU145-TXR cells, as described below.
MTT assays measure the reduction of yellow, water soluble 3-(4,5-dimethylthiazol-2-yl)-2,5-diphenyltetrazolium bromide (MTT) to blue, insoluble formazan crystals by cellular reductase processes in living cells. Cells were trypsinized from monolayers and seeded in complete medium in 96 well plates. Cancerous cell lines (DU145, DU145-TXR, A2780, A2780-ADR) were seeded at 3,000 cells per well in complete RPMI medium. The non-cancerous HFL1 line was seeded at 4,000 cells per well in complete F12K medium, in collagen-treated plates (Collagen Type 1, Gibco). Cells were incubated with experimental compounds for 48 hours at 37 °C and 5% CO2 in a humidified incubator. At 48 hours, MTT was added (20 µL/well of 5 mg/mL MTT in PBS) to each well. After incubation for 4 hours, the media was removed, and the formazan crystals were dissolved in 100 µL DMSO per well. Plates containing the semi-adherent A2780 or A2780-ADR lines were spun at 1400 rpm for 3 minutes prior to aspiration of media, and the addition of DMSO. Plates were shaken for 10 minutes at 500 rpm on an Orbital shaker (LabDoctor from MidSci, St Louis, MO). The absorbance was measured at 570 nm using a Bio-Tek Cytation 5 (Bio-Tek, Winooski, VT). The measured absorbance value was correlated with the number of metabolically active cells in that well, corrected for absorbance of media. […]

P-gp = biological target: T1, P-gp (Homo sapiens, UniProt P08183); assay: LC-MS/MS intracellular accumulation assay with or without tariquidar (P-gp transport substrate test) in DU145-TXR cells; assay type: in vitro ADME; conditions: for P-gp transport substrate assessment / Intracellular accumulation (normalized ratio of compound to internal standard), Trial 1, + TQR / Intracellular accumulation (normalized ratio of compound to internal standard), Trial 2, + TQR / Intracellular accumulation (normalized ratio of compound to internal standard), Trial 1, - TQR / Intracellular accumulation (normalized ratio of compound to internal standard), Trial 2, - TQR: DU145-TXR, 2.5 h; for P-gp transport substrate assessment: 5 µM compound with or without 500 nM tariquidar, LC-MS/MS; for Intracellular accumulation (normalized ratio of compound to internal standard), Trial 1, + TQR / Intracellular accumulation (normalized ratio of compound to internal standard), Trial 2, + TQR / Intracellular accumulation (normalized ratio of compound to internal standard), Trial 1, - TQR / Intracellular accumulation (normalized ratio of compound to internal standard), Trial 2, - TQR: 5 µM compound, mean ± SD, triplicate; for Intracellular accumulation (normalized ratio of compound to internal standard), Trial 1, + TQR / Intracellular accumulation (normalized ratio of compound to internal standard), Trial 2, + TQR: with 500 nM tariquidar; for Intracellular accumulation (normalized ratio of compound to internal standard), Trial 1, - TQR / Intracellular accumulation (normalized ratio of compound to internal standard), Trial 2, - TQR: without tariquidar; for P (- TQR vs + TQR), Trial 1 / P (- TQR vs + TQR), Trial 2: Student's T test of the mean; for Significance of accumulation with tariquidar, Trial 1 / Significance of accumulation with tariquidar, Trial 2: significant difference = likely P-gp transport substrate
T1 construct: The MDR, P-gp overexpressing DU145-TXR cells were maintained under positive selection pressure; endogenous in cells; host or cells: DU145-TXR (paclitaxel-resistant sub-line of DU145 human prostate cancer cells)
T1 sequence (P08183 whole entry): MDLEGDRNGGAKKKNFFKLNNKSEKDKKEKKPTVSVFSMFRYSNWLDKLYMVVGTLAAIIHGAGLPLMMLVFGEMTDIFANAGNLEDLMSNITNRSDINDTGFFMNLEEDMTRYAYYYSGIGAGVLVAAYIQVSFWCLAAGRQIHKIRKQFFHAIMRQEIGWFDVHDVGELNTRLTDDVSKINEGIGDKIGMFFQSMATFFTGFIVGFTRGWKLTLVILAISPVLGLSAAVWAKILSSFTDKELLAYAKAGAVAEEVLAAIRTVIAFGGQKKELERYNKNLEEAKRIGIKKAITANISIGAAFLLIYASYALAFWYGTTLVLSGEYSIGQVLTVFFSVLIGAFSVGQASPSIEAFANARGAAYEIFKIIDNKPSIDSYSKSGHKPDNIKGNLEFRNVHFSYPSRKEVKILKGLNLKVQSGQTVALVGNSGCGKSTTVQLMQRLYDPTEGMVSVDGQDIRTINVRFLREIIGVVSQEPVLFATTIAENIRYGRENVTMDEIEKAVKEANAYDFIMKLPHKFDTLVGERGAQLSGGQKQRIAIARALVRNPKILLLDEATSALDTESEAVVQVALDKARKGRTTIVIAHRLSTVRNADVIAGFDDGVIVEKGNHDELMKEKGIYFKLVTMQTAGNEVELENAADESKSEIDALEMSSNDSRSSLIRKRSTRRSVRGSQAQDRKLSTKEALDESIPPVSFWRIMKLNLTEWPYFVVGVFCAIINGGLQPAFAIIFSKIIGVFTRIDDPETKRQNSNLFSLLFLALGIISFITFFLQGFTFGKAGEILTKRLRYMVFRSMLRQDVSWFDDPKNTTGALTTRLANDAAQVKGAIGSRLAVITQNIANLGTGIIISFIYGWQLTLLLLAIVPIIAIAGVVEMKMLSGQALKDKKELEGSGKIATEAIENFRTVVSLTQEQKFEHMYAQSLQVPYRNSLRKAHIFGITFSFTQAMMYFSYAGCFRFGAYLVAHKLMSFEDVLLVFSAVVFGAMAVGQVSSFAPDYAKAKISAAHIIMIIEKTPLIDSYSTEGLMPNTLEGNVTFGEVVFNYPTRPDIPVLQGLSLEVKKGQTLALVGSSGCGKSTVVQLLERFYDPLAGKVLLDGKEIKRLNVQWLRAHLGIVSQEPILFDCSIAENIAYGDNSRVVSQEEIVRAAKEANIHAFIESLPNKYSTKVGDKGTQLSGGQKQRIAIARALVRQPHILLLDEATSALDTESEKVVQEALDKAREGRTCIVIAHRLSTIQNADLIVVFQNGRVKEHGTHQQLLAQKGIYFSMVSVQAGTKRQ
Procedure: DU145-TXR cells were seeded at 350,000 cells per well in 6-well plates in complete RPMI medium. […] A full sample of DAU was also prepared for quantitative analysis. […] Media was removed with a glass vacuum aspirator. Cells were re-suspended and washed in 2mL of ice-cold Hank’s Balanced Salt Solution (HBSS, Gibco), and spun again at 2400 rpm. Cell lysates were diluted in 600 µL of ice-cold HBSS, flash-frozen in liquid nitrogen, and stored at −80 °C until analysis. LC-MS/MS intracellular accumulation assays were performed in collaboration with the Pharmacology Core at the University of Texas Southwestern Medical Center (UTSW). […] This method allowed us to quantify the change – if any – in the relative amount of compound present in the samples when TQR was added. An increase in the relative amount of compound indicates enhanced intracellular retention that compound. […] The “Internal Standard” (IS) is a known substance added in a constant amount to each sample. The “Peak Area”, expressed as “counts”, describes the number of MS/MS spectra from the experimental compound and serves as a measure of its relative abundance. […] These values allow a comparison of the relative abundance of compound between the “- TQR” and “+ TQR” samples, and to test for statistically significant differences. LC-MS/MS quantification was performed as follows. Cell lysate was aliquoted into Eppendorf tubes. In contrast to [9], blank cell lysates were not spiked with varying concentrations of each compound to create a standard curve, since compound amounts were normalized to abundance of the internal standard. […] The supernatant was then transferred to an HPCL vial, and subsequently analyzed using LC-MS/MS using a Sciex 4000QTRAP mass spectrometer coupled to a Shimadzu Prominence LC. […] The column flow rate was 1.5 ml/min using an Agilent C18 XDB, 5 micron packing 50 × 4.6 mm column. […] A BSA standard curve was then prepared in water and mixed using the same ratio. […] The ratio of Analyte to Internal Standard was normalized to the lysate content for each individual sample. […] Statistical significance was determined using a Student’s T Test in GraphPad Prism. We aimed to identify P-gp inhibitors that are not transport substrates of the pump itself. […] To test these predictions in vitro, liquid chromatography with tandem mass spectrometry (LC-MS/MS) was used to assess the intracellular accumulation of experimental compounds as described in [9]. […] The relative intracellular accumulation of each experimental compound was then assessed using LC-MS/MS. […] The P-gp substrate and chemotherapeutic daunorubicin (DAU) was used as a positive control for P-gp-mediated transport.

SMILES | Increase of PTX toxicity against parental A2780 cells (A2780 cells) | Mean % Survival (A2780 cells; 15 µM compound + 500 nM PTX) [%] | % Survival (individual sample) (A2780 cells; 15 µM compound + 500 nM PTX) | % Survival (individual sample) (A2780 cells; 15 µM compound alone) [%] | viability at 15 µM (A2780 cells; 15 µM compound alone) [%] | P-gp transport substrate assessment (P-gp) | Intracellular accumulation (normalized ratio of compound to internal standard), Trial 1, + TQR (P-gp) | Intracellular accumulation (normalized ratio of compound to internal standard), Trial 2, + TQR (P-gp) | Intracellular accumulation (normalized ratio of compound to internal standard), Trial 1, - TQR (P-gp) | Intracellular accumulation (normalized ratio of compound to internal standard), Trial 2, - TQR (P-gp) | P (- TQR vs + TQR), Trial 1 (P-gp) | P (- TQR vs + TQR), Trial 2 (P-gp) | Significance of accumulation with tariquidar, Trial 1 (P-gp) | Significance of accumulation with tariquidar, Trial 2 (P-gp)
O=C(c1nc(-c2ccccn2)no1)N1CCN(c2nsc3ccccc23)CC1 [Compound 124, O=C(N1CCN(CC1)c1nsc2ccccc12)c1nc(no1)-c1ccccn1] | did not greatly increase the toxicity of PTX against the parental A2780 cells | 14.5 | 10% | 86 | 89.5 | potential P-gp transport substrates | 0.061 ± 0.011 | 0.055 ± 0.009 | 0.006 ± 0.001 | 0.007 ± 0.002 | 0.001 | 0.0008 | ** (P < 0.01 = **) | *** (P < 0.001 = ***)
O=C(NCc1cccc(F)c1)c1nnn2c1Sc1c(C(=O)NCc3cccc(F)c3)nnn1CC2 [Compound 122, Fc1cccc(CNC(=O)c2nnn3CCn4nnc(C(=O)NCc5cccc(F)c5)c4Sc23)c1] | did not greatly increase the toxicity of PTX against the parental A2780 cells | 13.6 | 12% and 14% | – | 76.5 | potential P-gp transport substrates | 0.146 ± 0.018 | 0.209 ± 0.014 | 0.049 ± 0.005 | 0.058 ± 0.018 | 0.0008 | 0.0003 | *** (P < 0.001 = ***) | *** (P < 0.001 = ***)
